# Experimental data taken from ChEMBL document CHEMBL3045097, “Synthesis and anticonvulsant evaluation of 2-(substituted benzylidene/ethylidene)-N-(substituted phenyl)hydrazinecarboxamide analogues” (Med Chem Res, 2013).
# Calls of active or inactive are those of the source. The rule behind the calls is not given here.
# Columns and labels:
# Mus musculus [1] = experiment: Neurotoxicity in Mus musculus (mouse) assessed as motor impairment at 30 to 300 mg/kg, ip measured at 0.5 hr by rotarod test; type: toxicity, organism-based; parameters: dose 30-300 mg/kg, route intraperitoneal; conditions: in vivo
# Mus musculus [2] = experiment: Anticonvulsant activity in Mus musculus (mouse) assessed as protection against maximal-electric shock-induced seizures at 30 to 300 mg/kg, ip measured at 4 hr; type: functional, organism-based
# Mus musculus [3] = experiment: Anticonvulsant activity in Mus musculus (mouse) assessed as protection against maximal-electric shock-induced seizures at 30 to 300 mg/kg, ip measured at 0.5 hr; type: functional, organism-based
# Mus musculus [4] = experiment: Anticonvulsant activity in Mus musculus (mouse) assessed as protection against scMET-induced clonic seizures at 30 to 300 mg/kg, ip measured at 0.5 to 4 hr; type: functional, organism-based
# Mus musculus [5] = experiment: Neurotoxicity in Mus musculus (mouse) assessed as motor impairment at 30 to 300 mg/kg, ip measured at 4 hr by rotarod test; type: toxicity, organism-based; parameters: dose 30-300 mg/kg, route intraperitoneal; conditions: in vivo
# Mus musculus [6] = experiment: Anticonvulsant activity in i.p. dosed Mus musculus (mouse) assessed as protection against maximal-electric shock-induced seizures measured at 4 hr; type: functional; conditions: ip, read-out: MED
# Mus musculus [7] = experiment: Anticonvulsant activity in Mus musculus (mouse) assessed as protection against 6 Hz psychomotor-induced clonic seizures at 100 mg/kg, ip measured at 2 hr relative to control; type: functional
# Mus musculus [8] = experiment: Neurotoxicity in Mus musculus (mouse) assessed as motor impairment at 100 mg/kg, ip measured at 4 hr by rotarod test relative to control; type: toxicity, organism-based; parameters: dose 100 mg/kg, route intraperitoneal; conditions: in vivo
# Mus musculus [9] = experiment: Neurotoxicity in Mus musculus (mouse) assessed as motor impairment at 100 mg/kg, ip measured at 2 hr by rotarod test relative to control; type: toxicity, organism-based; parameters: dose 100 mg/kg, route intraperitoneal; conditions: in vivo
# Mus musculus [10] = experiment: Neurotoxicity in Mus musculus (mouse) assessed as motor impairment at 100 mg/kg, ip measured at 0.5 hr by rotarod test relative to control; type: toxicity, organism-based; parameters: dose 100 mg/kg, route intraperitoneal; conditions: in vivo
# Mus musculus [11] = experiment: Neurotoxicity in Mus musculus (mouse) assessed as motor impairment at 100 mg/kg, ip measured at 1 hr by rotarod test relative to control; type: toxicity, organism-based; parameters: dose 100 mg/kg, route intraperitoneal; conditions: in vivo
# Mus musculus [12] = experiment: Neurotoxicity in Mus musculus (mouse) assessed as motor impairment at 100 mg/kg, ip measured at 0.25 hr by rotarod test relative to control; type: toxicity, organism-based; parameters: dose 100 mg/kg, route intraperitoneal; conditions: in vivo
# Mus musculus [13] = experiment: Anticonvulsant activity in Mus musculus (mouse) assessed as protection against 6 Hz psychomotor-induced clonic seizures at 100 mg/kg, i.p. measured at 4 hr relative to control; type: functional
# Mus musculus [14] = experiment: Anticonvulsant activity in Mus musculus (mouse) assessed as protection against 6 Hz psychomotor-induced clonic seizures at 100 mg/kg, i.p. measured at 1 hr relative to control; type: functional
# Mus musculus [15] = experiment: Anticonvulsant activity in Mus musculus (mouse) assessed as protection against 6 Hz psychomotor-induced clonic seizures at 100 mg/kg, i.p. measured at 0.5 hr relative to control; type: functional
# Mus musculus [16] = experiment: Anticonvulsant activity in Mus musculus (mouse) assessed as protection against 6 Hz psychomotor-induced clonic seizures at 100 mg/kg, i.p. measured at 0.25 hr relative to control; type: functional
# Mus musculus [17] = experiment: Neurotoxicity in i.p. dosed Mus musculus (mouse) assessed as motor impairment measured at 4 hr by rotarod test; type: toxicity, organism-based; conditions: in vivo, ip
# Mus musculus [18] = experiment: Neurotoxicity in i.p. dosed Mus musculus (mouse) assessed as motor impairment measured at 0.5 hr by rotarod test; type: toxicity, organism-based; conditions: in vivo, ip
# Mus musculus [19] = experiment: Anticonvulsant activity in i.p. dosed Mus musculus (mouse) assessed as protection against maximal-electric shock-induced seizures measured at 0.5 hr; type: functional; conditions: ip, read-out: MED
SMILES,Activity (Mus musculus [1]),Activity (Mus musculus [2]),Activity (Mus musculus [3]),Activity (Mus musculus [4]),Activity (Mus musculus [5]),minimal effective dose (Mus musculus [6]),Activity (Mus musculus [8]),Activity (Mus musculus [9]),Activity (Mus musculus [10]),Activity (Mus musculus [11]),Activity (Mus musculus [12]),also measured
C/C(=N\NC(=O)Nc1ccc(C)cc1)c1ccccc1O,Non-toxic,inactive,inactive,inactive,Non-toxic,–,–,–,–,–,–,–
Cc1ccc(NC(=O)NN=C2CCCCC2)cc1,Non-toxic,–,inactive,inactive,Non-toxic,300 mg/kg,Non-toxic,Non-toxic,Non-toxic,Non-toxic,Non-toxic,Activity (Mus musculus [7]): inactive; Activity (Mus musculus [13]; route intraperitoneal): 25%; Activity (Mus musculus [14]; route intraperitoneal): 50%; Activity (Mus musculus [15]; route intraperitoneal): 100%; Activity (Mus musculus [16]; route intraperitoneal): 25%
O=C(N/N=C/c1ccc(Cl)cc1Cl)Nc1ccccc1Cl,Non-toxic,inactive,inactive,inactive,Non-toxic,–,–,–,–,–,–,–
O=C(N/N=C/c1ccc(Cl)cc1)Nc1ccccc1Cl,Non-toxic,inactive,inactive,inactive,Non-toxic,–,–,–,–,–,–,–
C/C(=N\NC(=O)Nc1ccccc1Cl)c1ccc(Cl)cc1,Non-toxic,–,inactive,inactive,Non-toxic,100 mg/kg,Non-toxic,Non-toxic,Non-toxic,Non-toxic,Non-toxic,Activity (Mus musculus [7]): inactive; Activity (Mus musculus [13]): inactive; Activity (Mus musculus [14]; route intraperitoneal): 50%; Activity (Mus musculus [15]): inactive; Activity (Mus musculus [16]): inactive
COc1cc(/C=N/NC(=O)Nc2ccc(C)cc2)ccc1O,Non-toxic,inactive,inactive,inactive,Non-toxic,–,–,–,–,–,–,–
O=C1NC(=O)C(c2ccccc2)(c2ccccc2)N1 [PHENYTOIN],–,–,–,inactive,–,30 mg/kg,–,–,–,–,–,MTC (Mus musculus [17]): 100 mg/kg; MTC (Mus musculus [18]): 100 mg/kg; minimal effective dose (Mus musculus [19]): 30 mg/kg
Cc1ccc(NC(=O)N/N=C/c2cccc(O)c2)cc1,Non-toxic,inactive,inactive,inactive,Non-toxic,–,Non-toxic,Non-toxic,Non-toxic,Non-toxic,Non-toxic,Activity (Mus musculus [7]; route intraperitoneal): 25%; Activity (Mus musculus [13]): inactive; Activity (Mus musculus [14]): inactive; Activity (Mus musculus [15]; route intraperitoneal): 25%; Activity (Mus musculus [16]; route intraperitoneal): 50%
CC(=O)C/C(C)=N/NC(=O)Nc1ccc(C)cc1,Non-toxic,inactive,inactive,inactive,Non-toxic,–,–,–,–,–,–,–
COc1ccc(/C(C)=N/NC(=O)Nc2ccccc2Cl)cc1,Non-toxic,–,–,inactive,–,300 mg/kg,–,–,–,–,–,MTC (Mus musculus [17]): 300 mg/kg; minimal effective dose (Mus musculus [19]): 300 mg/kg
O=C(NN=C1CCCC1)Nc1ccccc1Cl,Non-toxic,inactive,inactive,inactive,Non-toxic,–,–,–,–,–,–,–
C/C(=N\NC(=O)Nc1ccc(C)cc1)c1ccc(O)cc1O,Non-toxic,inactive,inactive,inactive,Non-toxic,–,–,–,–,–,–,–
C/C(=N\NC(=O)Nc1ccccc1Cl)c1ccc(C)cc1,Non-toxic,inactive,inactive,inactive,Non-toxic,–,–,–,–,–,–,–
O=C(N/N=C/c1ccco1)Nc1ccccc1Cl,Non-toxic,inactive,inactive,inactive,Non-toxic,–,–,–,–,–,–,–
NNC(=O)Nc1ccccc1Cl,Non-toxic,inactive,inactive,inactive,Non-toxic,–,25%,Non-toxic,25%,25%,25%,Activity (Mus musculus [7]; route intraperitoneal): 100%; Activity (Mus musculus [13]): Active; Activity (Mus musculus [14]; route intraperitoneal): 100%; Activity (Mus musculus [15]; route intraperitoneal): 100%; Activity (Mus musculus [16]; route intraperitoneal): 100%
O=C(N/N=C/c1cccc(O)c1)Nc1ccccc1Cl,Non-toxic,inactive,inactive,inactive,Non-toxic,–,–,–,–,–,–,–
Cc1ccc(NC(=O)NN)cc1,Non-toxic,inactive,–,inactive,–,–,50%,25%,Non-toxic,Non-toxic,Non-toxic,MTC (Mus musculus [17]): 300 mg/kg; minimal effective dose (Mus musculus [19]): 300 mg/kg; Activity (Mus musculus [7]; route intraperitoneal): 25%; Activity (Mus musculus [13]): inactive; Activity (Mus musculus [14]; route intraperitoneal): 50%; Activity (Mus musculus [15]; route intraperitoneal): 50%; Activity (Mus musculus [16]; route intraperitoneal): 100%
NC(=O)N1c2ccccc2C=Cc2ccccc21 [CARBAMAZEPINE],–,–,–,inactive,–,100 mg/kg,–,–,–,–,–,MTC (Mus musculus [17]): 300 mg/kg; MTC (Mus musculus [18]): 100 mg/kg; minimal effective dose (Mus musculus [19]): 30 mg/kg
O=C(N/N=C/c1ccc(O)cc1)Nc1ccccc1Cl,Non-toxic,–,inactive,inactive,Non-toxic,100 mg/kg,Non-toxic,Non-toxic,Non-toxic,Non-toxic,Non-toxic,Activity (Mus musculus [7]; route intraperitoneal): 50%; Activity (Mus musculus [13]): inactive; Activity (Mus musculus [14]; route intraperitoneal): 50%; Activity (Mus musculus [15]; route intraperitoneal): 100%; Activity (Mus musculus [16]; route intraperitoneal): 50%
Cc1ccc(NC(=O)N/N=C/c2ccccc2Cl)cc1,Non-toxic,inactive,inactive,inactive,Non-toxic,–,–,–,–,–,–,–
COc1ccc(/C=N/NC(=O)Nc2ccccc2Cl)cc1OC,Non-toxic,–,inactive,inactive,Non-toxic,100 mg/kg,Non-toxic,Non-toxic,Non-toxic,Non-toxic,Non-toxic,Activity (Mus musculus [7]; route intraperitoneal): 25%; Activity (Mus musculus [13]; route intraperitoneal): 25%; Activity (Mus musculus [14]): inactive; Activity (Mus musculus [15]): inactive; Activity (Mus musculus [16]; route intraperitoneal): 25%
